Source: US11896612B2, “Resurrection of antibiotics that MRSA resists by silver-doped bioactive glass-ceramic particles” (Board of Trustees of Michigan State University, priority 2019, dated 2024)
“Also recorded” adds a separate entry of the source.

Tests used:
[1] = tested on: methicillin-resistant S. aureus USA300 JE2; test: Antibacterial test: CFU enumeration of MRSA suspended in PBS (growth-arrested); format: cell-based, Staphylococcus aureus; conditions: 24 hours; for bacterial inhibition by antibiotic alone: PBS, static, oxacillin 0.1-50 μg/ml, vancomycin up to 10 mg/ml, fosfomycin 0.05-50 μg/ml, gentamicin 0.01 μg/ml
Method: All experiments are conducted using the laboratory derived methicillin-resistant S. aureus USA300 JE2. Cells are streaked for isolation on tryptic soy agar (TSA) and cultured at 37° C. overnight. An isolated colony is then grown in broth (TSB), shaking at 225 rpm at 37° C. overnight. Next, 1 mL solution of MRSA in PBS, normalized to an optical density (OD600 nm) equal to 1 (equivalent to 10^8 CFU/mL) is prepared. The bacterial suspension is mixed in a 1:1 volume ratio, with each of the solutions containing twofold the final concentration of Ag-BG, antibiotic, or the indicated Ag-BG/antibiotic combination. An untreated control is also prepared by mixing the bacterial suspension in a 1:1 volume ratio with PBS.
Bacterial suspensions are placed in a 37° C. incubator for the indicated time. At each time point, an aliquot of the bacterial suspension is removed to enumerate colony forming units (CFU) of the bacteria via serial dilution and plating on TSA. All plates are incubated at 37° C. Quantification of CFU are performed in biological and technical triplicate. Measurements are repeated three times. Standard deviation is indicated as error bars. Statistical analysis is performed using the paired Student's t-test, two tailed, n=9 and p<0.05.
The bactericidal properties of Ag-BG alone, vancomycin alone (vanc) and the combination of Ag-BG with vancomycin (Ag-BG/vanc) were studied against laboratory-derived methicillin-resistant S. aureus (MRSA) USA300 JE241. The bacteria cells were prepared by isolation of a single colony, followed by its inoculation in tryptic soy broth overnight at 37° C. A bacterial suspension was prepared by adjusting the concentration of the overnight culture to 108 colony forming units (CFU)/mL in Phosphate Buffered Saline (PBS). Then, the bacterial suspension was mixed 1:1 with the corresponding treatment (Ag-BG, Ag-BG/vanc or vanc) to a final volume of 1 mL. A negative control was prepared by suspending bacteria 1:1 in PBS. After 24 h of incubation at 37° C., […] of suspension were drawn from the mixture for CFU enumeration in tryptic soy agar plates. The effect of the treatments was evaluated based on the decrease of CFU compared to the negative control. Quantification of CFU was performed in biological and technical triplicates.
Vancomycin (molecular formula: C66H75C12N9O24·HCl, Vancomycin hydrochloride) is a cell-wall targeting antibiotic with no effect against MRSA under growth-arrested conditions and was selected for this example. Here, the concentration dependency of this synergism was evaluated by exposing MRSA to different combinations of Ag-BG/vanc. Two experimental set-ups were considered. Initially, 0.5 mg/mL of vancomycin were delivered together with 1.25, 2.5, 3.75 or 6.5 mg/mL of Ag-BG and then, 2.5 mg/mL of Ag-BG were combined with 0.1, 0.3, 0.5 and 1 mg/mL of vancomycin. The Ag-BG powder was sterilized using UV radiation before exposure to bacteria. The antibiotic treatment was prepared by dilution of vancomycin powder at different concentrations in PBS, and the Ag-BG/vanc samples were prepared by mixing Ag-BG powder with the corresponding vancomycin solution.

eukaryotic cells = conditions: cited from earlier work
bacteria = conditions: cited from earlier work
[2] = tested on: human mesenchymal stem cells (hBMSC); test: Proliferation of human mesenchymal stem cells, CCK-8; format: cell-based; conditions: 0.2 mg/mL Ag2O in transwell, 4 days exposure
Method: Primary bone-marrow derived human mesenchymal stem cells (hBMSC) isolated from healthy donor were obtained from the Institute of Regenerative Medicine, Texas A&M University. Frozen vials of cells were thawed and cultured a in α-MEM supplemented with 16% fetal bovine serum, 1% Antibiotic-Antimycotic and 1% L-glutamine (hereafter, growth medium) in a humidified 37° C./5% CO2 incubator. Cells were expanded until 90% confluence to a final passage. Cells were enzymatically lifted, centrifuged for 5 min and re-suspended fresh media. Cells were seeded at a density of 15×10^3 cells/mL on each well of 24-well plate by pipetting 0.5 mL/well. After 24 h, Ag-BGN (5, 10 and 20 mg/mL) were transferred to porous transwells and inside the wells to treat cell for 2, 4, 6, 8 and 10 days. The results were compared to a positive control consisting on cell immersed only in media and a negative control consisting on cells treated with Ag2O exposed using a porous transwell. […]
After each time point, cell viability and proliferation were assessed introducing a CCK-8 kit solution in the wells after removing the transwells. After 2 h, […] were drawn and placed in a 96 well plate and its optical density was measured at 470 nm wavelength. […]

MRSA [3] = test: TEM and SEM imaging of MRSA after exposure; format: cell-based, Staphylococcus aureus; conditions: 24 hours exposure in PBS
Method: After 24 hours of incubation, solutions are prepared for studies with TEM to observe the morphology and ultrastructural properties of bacteria in each of the tested groups. The cultures are centrifuged and fixed using Karnovsky fixative, consisting of 2.5% glutaraldehyde, 2.5% paraformaldehyde and 0.1 M cacodylate buffer dissolved in deionized water. In the cases of the tested groups with Ag-BG particles, the particles are removed by allowing them to settle to the bottom of the Eppendorf microcentrifuge tubes before centrifugation and fixation. Bacteria pellets are suspended and incubated in fixative for 2 hours at room temperature. Next, the suspensions are centrifuged to remove the fixative. To capture bacteria in a solid matrix, a drop of a 2% agarose deionized water solution is added to the cell pellet. After the agarose solidifies, the matrix is washed three times at room temperature for 15 minutes with 0.1 M cacodylate buffer. A solution of 2% osmium tetroxide is used to stain the bacterial cells for 1 hour at the post-fixation stage. Subsequently, the cubes are washed with deionized water. Dehydration is done by a series of different concentrations of acetone: 25%, 50%, 75%, and 100%. Next, Spurr resin is infiltrated in a series of dilutions in acetone (acetone: resin): 3:1, 1:1, and 100% resin for two days. The cells are embedded in 100% Spurr resin at 60° C. for 24 hours and then, thin sections of less than 100 nm thickness are obtained by ultramicrotome (RMC MYX ultramicrotome) with glass knives and are mounted in bare copper grids. Positive staining is done with 2% uranyl acetate for 7 minutes and lead citrate for 3 minutes. Finally, samples are observed at 100 kV in a JEOL 100CX microscope.
Bacterial morphology upon exposure to Ag-BG particles is studied using SEM. Cells are prepared after 12 hours of exposure. In this case, the Ag-BG particles remain in the solution with the cells and are fixed using 2.5% glutaraldehyde, 2.5% paraformaldehyde, and 0.1 M cacodylate buffer dissolved in deionized water. […]

MRSA [4] = test: Vancomycin susceptibility of MRSA cultured in tryptic soy broth (TSB); format: cell-based, Staphylococcus aureus
Method: Oxacillin and fosfomycin are used at 0.1 and 0.05 μg/ml, respectively—a concentration that is considerably lower than their MIC. Vancomycin (molecular formula: C66H75C12N9O24·HCl, Vancomycin hydrochloride) is selected due to a mechanism of action that is dependent on cell growth. MRSA is susceptible to 0.47 μg/ml of vancomycin when cultured in tryptic soy broth (TSB). However, exposure to vancomycin in growth arrested conditions, such as suspension in phosphate buffered saline (PBS), enhances tolerance to the antibiotic. Cells are exposed to 0.5 mg/ml vancomycin in PBS. […] All antibiotics are purchased from Sigma Aldrich in powder USP Reference Standard and are used without further purification.

Row | Compound | bacterial inhibition by antibiotic alone [1] | bacterial ultrastructure by TEM (MRSA [3]) | further results
1 | Gentamicin | does not inhibit significantly | – | concentration that significantly inhibits MRSA ([1]; static conditions): higher than 0.1 μg/ml
2 | silver ions | – | – | lowest concentration that induces cytotoxicity (eukaryotic cells): 1.6 ppm; minimum bactericidal concentration (bacteria): 0.1 ppm
3 | [Ag+].[Ag+].[O-2] [Ag2O] | – | – | cell viability [2]: not viable
4 | C[C@@H]1O[C@@H]1P(=O)(O)O [fosfomycin, Fosfomycin] | resistant | intact cells | –
5 | Cc1onc(-c2ccccc2)c1C(=O)N[C@@H]1C(=O)N2[C@@H]1SC(C)(C)[C@@H]2C(=O)O [oxacillin, Oxacillin] | no demonstrable bacterial inhibition | intact cells | –
6 | CN[C@H](CC(C)C)C(=O)N[C@H]1C(=O)N[C@@H](CC(N)=O)C(=O)N[C@H]2C(=O)N[C@H]3C(=O)N[C@H](C(=O)N[C@H](C(=O)O)c4cc(O)cc(O)c4-c4cc3ccc4O)[C@H](O)c3ccc(c(Cl)c3)Oc3cc2cc(c3O[C@@H]2O[C@H](CO)[C@@H](O)[C@H](O)[C@H]2O[C@H]2C[C@](C)(N)[C@H](O)[C@H](C)O2)Oc2ccc(cc2Cl)[C@H]1O [vancomycin, Vancomycin] | not lethal; also recorded: no reduction of CFU/mL | intact cells | concentration to which MRSA is susceptible (MRSA [4]): 0.47 µg/mL
